Literature values as cited in patent publication US20230330064A1, “TYROSINE, TRYPTOPHAN AND PHENYLALANINE AS mTOR AGONISTS MEDIATING PROTEASOME DYNAMICS, COMPOSITIONS, METHODS AND USES THEREOF IN THERAPY, AND PROGNOSTIC METHODS FOR DRUG-RESISTANCE” (Technion Research & Development Foundation Limited, priority 2020, published 2023).

Tested on: MCF-7
Details: cited from earlier work

## N[C@@H](Cc1c[nH]c2cccc(F)c12)C(=O)O [L-(4-F) Trp]
  growth of MCF-7 cells: completely inhibited the growth
